Drawing on PubChem BioAssay (NCI), this text covers TGI for 1 molecule.

Each structure is given as a SMILES string.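 Dose response: 5 concentrations. Exposure: 48 h. Format: 96-well plates. Endpoint: linear interpolation; highest concentration if not reached. TGI: total growth inhibition.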

Experiment in all cases: growth of human tumour cells (NCI), 48 h
Experiment [1] has as its system MOLT-4 leukemia.
Experiment [2] concerns OVCAR-8 ovarian.
Experiment [3] relates to A498 renal.
Experiment [4] deals with NCI-H522 lung.
The test system of experiment [5] is UACC-257 melanoma.
Experiment [6] has as its system NCI-H460 lung.
The test system of experiment [7] is MDA-MB-231 breast.
Experiment [8] has as its system HCT-15 colon.
Experiment [9] has as its system T-47D breast.
For experiment [10], the system named is TK-10 renal.

For `CC(C)=CCCC1(Sc2ccccc2)C(=O)OCC1C=C(C)C` (stereo not given), the TGI in experiment [1] is 20.4 µM; in experiment [2] it was > 100 µM; in experiment [3], > 100 µM; in experiment [4] it was 47.4 µM; in experiment [5], 83 µM; in [6], > 100 µM. Further, the TGI in experiment [7], in experiment [8], in experiment [9] and in experiment [10] was > 100 µM throughout.
